The values below come from PMC10377586 (Biomolecules, 2023).

In one data set the target is T1, rat A2A (rA2A) ARs (Rattus norvegicus, UniProt P30543).
T1 construct: rat brain striatal membrane preparations for A2A AR assays; tissue Pel Freez; host or cells: rat brain striatum membranes
The data set is described as follows: Radioligand binding [3H]MSX-2, rat brain striatal membranes. The conditions noted are these: read-out: rA2A [3H]MSX-2 % inhibition ± SEM at 10 µM.

A further data set concerns the target T2, rat A1 (rA1) ARs (Rattus norvegicus, UniProt P25099).
T2 construct: using rat brain cortical membrane preparations for A1; tissue Pel Freez; host or cells: rat brain cortex membranes
T2 sequence (P25099 1-326): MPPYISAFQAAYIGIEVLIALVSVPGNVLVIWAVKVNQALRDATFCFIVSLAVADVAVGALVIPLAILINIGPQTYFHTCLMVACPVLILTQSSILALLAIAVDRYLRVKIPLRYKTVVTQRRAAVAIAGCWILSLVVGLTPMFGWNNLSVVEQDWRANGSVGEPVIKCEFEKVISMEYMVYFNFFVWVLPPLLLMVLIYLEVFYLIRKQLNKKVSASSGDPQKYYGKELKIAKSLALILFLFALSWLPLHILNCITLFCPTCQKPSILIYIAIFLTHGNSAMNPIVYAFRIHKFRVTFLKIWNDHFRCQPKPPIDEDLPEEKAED
In words: Radioligand binding [3H]CCPA, rat brain cortical membranes. The conditions noted are these: read-out: rA1 [3H]CCPA % inhibition ± SEM at 10 µM.

For data set [1], the target named is human dopamine D2L receptors (Homo sapiens, UniProt P14416). In words: cAMP accumulation assay in forskolin-stimulated HEK293 cells expressing hD2R. The class given is cell-based. A general note: Changes in cAMP serve as a functional read-out for many G protein-coupled receptors.
Description: Briefly, HEK293 cells stably expressing human D2LR were incubated (30 min, room temperature) with forskolin (1 μM) and evaluated compounds in triplicates (7 appropriate concentrations in a range spanning over 6 log units) in presence of phosphodiesterase inhibitor (RO-201724, 100 μM). Subsequently, intracellular cAMP accumulation was measured with homogenous TR-FRET immunoassay, using LANCE Ultra cAMP kit (PerkinElmer) and following manufacturer’s instructions. TR-FRET signal, inversely proportional to cAMP concentration in sample, was measured using Infinite M1000 Pro microplate reader (Tecan, Männedorf, Switzerland). Sigmoidal dose–response curve fitting was performed, using GraphPad Prism™ software (version 5.01, San Diego, CA, USA).
Another data set deals with SH-SY5Y cells. In words: Intrinsic neurotoxicity, LDH release from SH-SY5Y cells. The conditions noted are these: 50 µM. The class given is cell-based. On the procedure: For neuroprotection studies, a cellular model of neuroblastoma SH-SY5Y cells exposed to hydrogen peroxide was applied. Lactate dehydrogenase (LDH) release was used as a measure of cell death. First, the compounds (11a, 11c, 12, 13, 20a, 21, and 22) were tested for their possible intrinsic neurotoxicity to the SH-SY5Y cell line (see Supplementary Figure S1). […] All other compounds were tested for cytoprotective effects against H2O2-induced toxicity in SH-SY5Y cells.
Neuroblastoma SH-SY5Y cells were seeded at the density of 20,000 cells per well to 96-well plates one day before the experiment. Twelve hours prior to start of the assay, cell culture medium was replaced with the fresh portion of reduced serum (1%) medium. Tested compounds were added to the cells at the final concentration of 10 or 50 µM in 1% DMSO. In the neuroprotection studies, hydrogen peroxide, at a final concertation of 300 µM, was pipetted to the assay plate 1 h after tested compounds addition. Cell death, represented by the release of LDH through the perforated cell membrane, was measured following 14 h incubation of cells with the compounds and hydrogen peroxide. LDH levels in cell culture medium were determined using fluorometric CytoTox-ONE Homogeneous Membrane Integrity Assay (Promega Corporation, Madison, WI, USA), according to manufacturer’s instructions.
Supplementary Figure 1. […]
A general note: LDH in the medium is a marker of cell lysis.

Chain of human dopamine D2L receptors (P14416 whole entry): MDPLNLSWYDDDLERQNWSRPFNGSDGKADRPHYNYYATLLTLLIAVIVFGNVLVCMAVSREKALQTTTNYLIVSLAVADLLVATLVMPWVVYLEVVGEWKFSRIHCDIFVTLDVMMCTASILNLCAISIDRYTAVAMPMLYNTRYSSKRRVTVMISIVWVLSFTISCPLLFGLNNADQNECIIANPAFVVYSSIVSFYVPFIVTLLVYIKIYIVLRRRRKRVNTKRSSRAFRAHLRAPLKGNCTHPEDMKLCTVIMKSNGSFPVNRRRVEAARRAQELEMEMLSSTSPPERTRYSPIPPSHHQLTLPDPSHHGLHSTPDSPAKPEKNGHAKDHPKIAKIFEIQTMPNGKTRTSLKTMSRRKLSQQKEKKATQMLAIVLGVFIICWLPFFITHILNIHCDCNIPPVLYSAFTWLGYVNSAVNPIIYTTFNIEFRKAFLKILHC
T1 sequence (P30543 whole entry): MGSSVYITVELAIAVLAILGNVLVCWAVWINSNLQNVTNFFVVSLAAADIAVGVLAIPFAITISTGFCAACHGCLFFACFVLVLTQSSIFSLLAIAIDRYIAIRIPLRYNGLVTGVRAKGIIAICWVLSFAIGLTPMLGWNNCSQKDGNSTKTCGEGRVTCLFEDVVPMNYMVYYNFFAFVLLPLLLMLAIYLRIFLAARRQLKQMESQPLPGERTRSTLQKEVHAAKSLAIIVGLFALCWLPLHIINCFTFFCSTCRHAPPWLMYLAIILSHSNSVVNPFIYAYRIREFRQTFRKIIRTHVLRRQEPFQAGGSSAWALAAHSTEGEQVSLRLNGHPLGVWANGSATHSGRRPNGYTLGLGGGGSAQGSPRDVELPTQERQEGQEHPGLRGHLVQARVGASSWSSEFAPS

As to `CCCCCCn1c(NCCc2ccc(O)c(O)c2)nc2c1c(=O)n(C)c(=O)n2C` [Compound 11i, 8-((3,4-Dihydroxyphenethyl)amino)-7-hexyl-1,3-dimethyl-3,7-dihydro-1H-purine-2,6-dione], the inhibition at 10 µM at rat A2A (rA2A) ARs was 14%; on rat A1 (rA1) ARs, 43%.
Take `Cn1c(=O)c2c(nc(NCCc3ccc(O)c(O)c3)n2CCc2ccccc2)n(C)c1=O` [Compound 11k, 8-((3,4-Dihydroxyphenethyl)amino)-1,3-dimethyl-7-phenethyl-3,7-dihydro-1H-purine-2,6-dione]: the inhibition at 10 µM at rat A2A (rA2A) ARs amounted to 44%; at rat A1 (rA1) ARs it was 46%.
In the case of `CCCCn1c(=O)c2c(nc(NCCc3ccc(O)c(O)c3)n2CCC)n(CCCC)c1=O` [Compound 13, 1,3-Dibutyl-8-((3,4-dihydroxyphenethyl)amino)-7-propyl-3,7-dihydro-1H-purine-2,6-dione], in data set [1] (forskolin-stimulated HEK293 cells, human D2L, read-out: EC50, functional cAMP assay), the concentration for a half-maximal effect (EC50) amounted to 11.3 µM. Also, in data set [1] (functional cAMP assay), the “intrinsic activity at D2R” value is given as “agonistic properties”. In the data set with SH-SY5Y cells, the “intrinsic neurotoxicity to SH-SY5Y cell line (LDH release)” value is “significant cytotoxicity”.
Regarding `Cn1c(=O)c2c(nc3n2CCCN3CCc2ccc(O)c(O)c2)n(C)c1=O` [Compound 20a, 9-(3,4-Dihydroxyphenethyl)-1,3-dimethyl-6,7,8,9-tetrahydropyrimido[2,1-f]purine-2,4(1H,3H)-dione], the inhibition at 10 µM on rat A1 (rA1) ARs was 43%.

Usually inhibition stands for how much of the control response was suppressed. As a reminder, the EC50 is the concentration needed to bring the measured effect to its halfway point.
